Measured values published in the NIST ThermoML archive (doi:10.1021/je200073x).
Numbers after ± are expanded uncertainties.

Tests used:
[1] = 101.33 kPa, Liquid; for viscosity: Concentric cylinders viscometry; for electrical conductivity: Metler Toledo SevenEasy conductivity meter; for mass density: Vibrating tube method
[2] = molar heat capacity at constant pressure; details: 101.33 kPa, Liquid, Small sample (50 mg) DSC

CCCCCC[n+]1ccn(C)c1.FC(F)(F)C(F)(F)[P-](F)(F)(F)(C(F)(F)C(F)(F)F)C(F)(F)C(F)(F)F
Details | electrical conductivity [S/m] | mass density [kg/m3] | molar heat capacity at constant pressure [J/K/mol] | viscosity [mPa·s]
[1], 293.15 K | 0.1303 ± 0.0013 | 1555.6 ± 0.7 | – | 114.3 ± 2.8
[1], 298.15 K | 0.167 ± 0.0017 | 1550.1 ± 0.7 | – | 88.2 ± 2.1
[1], 303.15 K | 0.209 ± 0.002 | 1544.7 ± 0.7 | – | 68.4 ± 1.6
[1], 308.15 K | 0.258 ± 0.003 | 1539.3 ± 0.7 | – | 54.1 ± 1.2
[1], 313.15 K | 0.313 ± 0.003 | 1533.9 ± 0.7 | – | 43.2 ± 1
[1], 318.15 K | 0.374 ± 0.004 | 1528.7 ± 0.7 | – | 35.1 ± 0.8
[1], 323.15 K | 0.44 ± 0.01 | 1523.5 ± 0.7 | – | 28.9 ± 0.6
[1], 328.15 K | 0.514 ± 0.005 | 1518 ± 1 | – | 24.4 ± 0.5
[1], 333.15 K | 0.593 ± 0.006 | 1512.6 ± 0.7 | – | 20.3 ± 0.4
[1], 338.15 K | 0.676 ± 0.007 | 1507.2 ± 0.7 | – | 17.3 ± 0.4
[1], 343.15 K | 0.769 ± 0.008 | 1501.8 ± 0.7 | – | 14.8 ± 0.3
[2], 293.15 K | – | – | 725.56 ± 24 | –
[2], 294.15 K | – | – | 726.17 ± 24 | –
[2], 295.15 K | – | – | 726.78 ± 24 | –
[2], 296.15 K | – | – | 728.01 ± 24 | –
[2], 297.15 K | – | – | 728.62 ± 24 | –
[2], 298.15 K | – | – | 729.85 ± 24 | –
[2], 299.15 K | – | – | 730.46 ± 24 | –
[2], 300.15 K | – | – | 731.68 ± 24 | –
[2], 301.15 K | – | – | 732.29 ± 24 | –
[2], 302.15 K | – | – | 733.52 ± 24 | –
[2], 303.15 K | – | – | 734.13 ± 24 | –
[2], 304.15 K | – | – | 735.36 ± 24 | –
[2], 305.15 K | – | – | 735.97 ± 24 | –
[2], 306.15 K | – | – | 737.19 ± 24 | –
[2], 307.15 K | – | – | 737.81 ± 24 | –
[2], 308.15 K | – | – | 738.42 ± 24 | –
[2], 309.15 K | – | – | 739.64 ± 25 | –
[2], 310.15 K | – | – | 740.25 ± 25 | –
[2], 311.15 K | – | – | 741.48 ± 25 | –
[2], 312.15 K | – | – | 742.09 ± 25 | –
[2], 313.15 K | – | – | 743.32 ± 25 | –
[2], 314.15 K | – | – | 743.93 ± 25 | –
[2], 315.15 K | – | – | 745.15 ± 25 | –
[2], 316.15 K | – | – | 745.77 ± 25 | –
[2], 317.15 K | – | – | 746.99 ± 25 | –
[2], 318.15 K | – | – | 747.6 ± 25 | –
[2], 319.15 K | – | – | 748.83 ± 25 | –
[2], 320.15 K | – | – | 749.44 ± 25 | –
[2], 321.15 K | – | – | 750.05 ± 25 | –
[2], 322.15 K | – | – | 751.28 ± 25 | –
[2], 323.15 K | – | – | 751.89 ± 25 | –
[2], 324.15 K | – | – | 752.5 ± 25 | –
[2], 325.15 K | – | – | 753.11 ± 25 | –
[2], 326.15 K | – | – | 754.34 ± 25 | –
[2], 327.15 K | – | – | 754.95 ± 25 | –
[2], 328.15 K | – | – | 756.17 ± 25 | –
[2], 329.15 K | – | – | 756.79 ± 25 | –
[2], 330.15 K | – | – | 758.01 ± 25 | –
[2], 331.15 K | – | – | 758.62 ± 25 | –
[2], 332.15 K | – | – | 759.24 ± 25 | –
[2], 333.15 K | – | – | 759.85 ± 25 | –
[2], 334.15 K | – | – | 760.46 ± 25 | –
[2], 335.15 K | – | – | 761.07 ± 25 | –
[2], 336.15 K | – | – | 762.3 ± 25 | –
[2], 337.15 K | – | – | 762.91 ± 25 | –
[2], 338.15 K | – | – | 763.52 ± 25 | –
[2], 339.15 K | – | – | 764.75 ± 25 | –
[2], 340.15 K | – | – | 765.36 ± 25 | –
[2], 341.15 K | – | – | 765.97 ± 25 | –
[2], 342.15 K | – | – | 767.2 ± 25 | –
[2], 343.15 K | – | – | 767.81 ± 25 | –

CCCCCCn1cc[n+](C)c1.F[P-](F)(F)(F)(F)F [1-hexyl-3-methylimidazolium hexafluorophosphate]
Details | electrical conductivity [S/m] | mass density [kg/m3] | molar heat capacity at constant pressure [J/K/mol] | viscosity [mPa·s]
[1], 293.15 K | 0.0388 ± 0.0004 | 1296.7 ± 3.3 | – | 693.1 ± 30
[1], 298.15 K | 0.0543 ± 0.0005 | 1292.9 ± 3.2 | – | 485.8 ± 20
[1], 303.15 K | 0.074 ± 0.001 | 1288.7 ± 3.2 | – | 350.9 ± 13
[1], 308.15 K | 0.0992 ± 0.001 | 1285.1 ± 3.2 | – | 255.4 ± 8.8
[1], 313.15 K | 0.1301 ± 0.0013 | 1281 ± 3.2 | – | 189.4 ± 6.1
[1], 318.15 K | 0.168 ± 0.0017 | 1277 ± 3.2 | – | 147.5 ± 4.4
[1], 323.15 K | 0.212 ± 0.002 | 1273 ± 3.1 | – | 114.7 ± 3.3
[1], 328.15 K | 0.264 ± 0.003 | 1269.1 ± 3.1 | – | 91.1 ± 2.5
[1], 333.15 K | 0.322 ± 0.003 | 1265.2 ± 3.1 | – | 73.5 ± 2
[1], 338.15 K | 0.391 ± 0.004 | 1261.2 ± 3.1 | – | 60 ± 1.6
[1], 343.15 K | 0.465 ± 0.005 | 1257 ± 3 | – | 49.6 ± 1.3
[2], 293.15 K | – | – | 421.53 ± 14 | –
[2], 294.15 K | – | – | 422.15 ± 14 | –
[2], 295.15 K | – | – | 422.78 ± 14 | –
[2], 296.15 K | – | – | 423.09 ± 14 | –
[2], 297.15 K | – | – | 423.4 ± 14 | –
[2], 298.15 K | – | – | 424.02 ± 14 | –
[2], 299.15 K | – | – | 424.34 ± 14 | –
[2], 300.15 K | – | – | 424.96 ± 14 | –
[2], 301.15 K | – | – | 425.27 ± 14 | –
[2], 302.15 K | – | – | 426.21 ± 14 | –
[2], 303.15 K | – | – | 426.83 ± 14 | –
[2], 304.15 K | – | – | 427.15 ± 14 | –
[2], 305.15 K | – | – | 427.46 ± 14 | –
[2], 306.15 K | – | – | 428.08 ± 14 | –
[2], 307.15 K | – | – | 428.71 ± 14 | –
[2], 308.15 K | – | – | 429.33 ± 14 | –
[2], 309.15 K | – | – | 429.96 ± 14 | –
[2], 310.15 K | – | – | 430.58 ± 14 | –
[2], 311.15 K | – | – | 431.21 ± 14 | –
[2], 312.15 K | – | – | 431.52 ± 14 | –
[2], 313.15 K | – | – | 432.14 ± 14 | –
[2], 314.15 K | – | – | 432.77 ± 14 | –
[2], 315.15 K | – | – | 433.39 ± 14 | –
[2], 316.15 K | – | – | 434.02 ± 14 | –
[2], 317.15 K | – | – | 434.64 ± 14 | –
[2], 318.15 K | – | – | 434.95 ± 14 | –
[2], 319.15 K | – | – | 435.58 ± 14 | –
[2], 320.15 K | – | – | 436.2 ± 14 | –
[2], 321.15 K | – | – | 436.83 ± 14 | –
[2], 322.15 K | – | – | 437.45 ± 15 | –
[2], 323.15 K | – | – | 437.76 ± 15 | –
[2], 324.15 K | – | – | 438.7 ± 15 | –
[2], 325.15 K | – | – | 439.32 ± 15 | –
[2], 326.15 K | – | – | 439.95 ± 15 | –
[2], 327.15 K | – | – | 440.89 ± 15 | –
[2], 328.15 K | – | – | 441.82 ± 15 | –
[2], 329.15 K | – | – | 442.45 ± 15 | –
[2], 330.15 K | – | – | 443.07 ± 15 | –
[2], 331.15 K | – | – | 444.01 ± 15 | –
[2], 332.15 K | – | – | 444.63 ± 15 | –
[2], 333.15 K | – | – | 445.26 ± 15 | –
[2], 334.15 K | – | – | 445.88 ± 15 | –
[2], 335.15 K | – | – | 446.51 ± 15 | –
[2], 336.15 K | – | – | 447.44 ± 15 | –
[2], 337.15 K | – | – | 448.07 ± 15 | –
[2], 338.15 K | – | – | 448.69 ± 15 | –
[2], 339.15 K | – | – | 449.32 ± 15 | –
[2], 340.15 K | – | – | 450.25 ± 15 | –
[2], 341.15 K | – | – | 450.56 ± 15 | –
[2], 342.15 K | – | – | 451.5 ± 15 | –
[2], 343.15 K | – | – | 452.44 ± 15 | –
